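Method: 48-hour compound exposure of cells in 96-well plates, five concentrations, linear interpolation of endpoints. The concentration for 50% growth inhibition is given as GI50.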 Active and inactive are the calls of the source. No stated cut-off is given here; in the data, active = GI50 up to about 1.1 µM and inactive = higher.
What was measured:
Experiment in all cases: inhibition of tumour cell growth, NCI panel, 48 h
[1] = tested on: A549
[2] = tested on: ACHN
[3] = tested on: HCT-116
[4] = tested on: IGROV-1
[5] = tested on: LOX IMVI
[6] = tested on: MDA-MB-231
[7] = tested on: MDA-N
[8] = tested on: MOLT-4
[9] = tested on: Malme-3M
[10] = tested on: NCI-H460
[11] = tested on: NCI/ADR-RES
[12] = tested on: OVCAR-4
[13] = tested on: OVCAR-5
[14] = tested on: RXF 393
[15] = tested on: SK-OV-3
[16] = tested on: SNB-19
[17] = tested on: SR
[18] = tested on: T47D
[19] = tested on: TK-10
[20] = tested on: U-251

Compound	GI50 [1]	GI50 [2]	GI50 [3]	GI50 [4]	GI50 [5]	GI50 [6]	GI50 [7]	GI50 [8]	GI50 [9]	GI50 [10]	GI50 [11]	GI50 [12]	GI50 [13]	GI50 [14]	GI50 [15]	GI50 [16]	GI50 [17]	GI50 [18]	GI50 [19]	GI50 [20]
CC(C)(NO)/C(=N\O)c1ccco1	> 100 µM (inactive)	> 100 µM (inactive)	> 100 µM (inactive)	> 100 µM (inactive)	> 100 µM (inactive)	> 100 µM (inactive)	> 100 µM (inactive)	20.1 µM (inactive)	> 100 µM (inactive)	> 100 µM (inactive)	> 100 µM (inactive)	> 100 µM (inactive)	> 100 µM (inactive)	> 100 µM (inactive)	> 100 µM (inactive)	> 100 µM (inactive)	> 10 µM (inactive)	> 100 µM (inactive)	> 100 µM (inactive)	> 100 µM (inactive)
COc1cc(C(C[N+](=O)[O-])SC(C)=O)ccc1OCc1ccccc1 (stereo not given)	9.33 µM (inactive)	9.55 µM (inactive)	4.13 µM (inactive)	2.88 µM (inactive)	1.43 µM (inactive)	4.93 µM (inactive)	2.88 µM (inactive)	2.25 µM (inactive)	12.3 µM (inactive)	8.95 µM (inactive)	12.2 µM (inactive)	14.4 µM (inactive)	14.8 µM (inactive)	1.69 µM (inactive)	16.1 µM (inactive)	8.24 µM (inactive)	1.79 µM (inactive)	20.5 µM (inactive)	6.35 µM (inactive)	6.9 µM (inactive)
C=C1C(=O)OC2/C=C(\C)CC/C=C(\C)CC(OC(=O)/C(=C/CO)CO)[C@@H]12 (stereo not given in full)	23.4 µM (inactive)	6.21 µM (inactive)	3.27 µM (inactive)	10.5 µM (inactive)	16 µM (inactive)	13.7 µM (inactive)	5.45 µM (inactive)	2.14 µM (inactive)	2.38 µM (inactive)	22.1 µM (inactive)	20 µM (inactive)	13.1 µM (inactive)	17.3 µM (inactive)	7.19 µM (inactive)	56 µM (inactive)	> 51.4 µM (inactive)	9.73 µM (inactive)	3.97 µM (inactive)	5.51 µM (inactive)	1.4 µM (inactive)
CCOC(=O)C(Cl)(NC(=O)c1ccc(F)cc1)C(F)(F)F (stereo not given)	> 100 µM (inactive)	> 100 µM (inactive)	> 100 µM (inactive)	> 100 µM (inactive)	> 100 µM (inactive)	> 100 µM (inactive)	> 100 µM (inactive)	> 100 µM (inactive)	> 100 µM (inactive)	> 100 µM (inactive)	> 100 µM (inactive)	> 100 µM (inactive)	> 100 µM (inactive)	> 100 µM (inactive)	> 100 µM (inactive)	> 100 µM (inactive)	> 100 µM (inactive)	> 100 µM (inactive)	> 100 µM (inactive)	> 100 µM (inactive)
C=C1C(=O)O[C@H]2C/C(C)=C/CC/C(C)=C/CC[C@@](C)(O)[C@@H](I)C[C@@H]12	11.2 µM (inactive)	8.77 µM (inactive)	4.14 µM (inactive)	3.15 µM (inactive)	0.234 µM (active)	12.8 µM (inactive)	3.33 µM (inactive)	2.37 µM (inactive)	4.49 µM (inactive)	13.2 µM (inactive)	6.3 µM (inactive)	4.94 µM (inactive)	14.5 µM (inactive)	3.84 µM (inactive)	16 µM (inactive)	15 µM (inactive)	2.67 µM (inactive)	11.7 µM (inactive)	11.5 µM (inactive)	13.6 µM (inactive)
O=C(O)c1cccc(S(=O)(=O)NCCO)c1	> 100 µM (inactive)	> 100 µM (inactive)	> 100 µM (inactive)	> 100 µM (inactive)	> 100 µM (inactive)	> 100 µM (inactive)	> 100 µM (inactive)	> 100 µM (inactive)	> 100 µM (inactive)	> 100 µM (inactive)	> 100 µM (inactive)	> 100 µM (inactive)	> 100 µM (inactive)	> 100 µM (inactive)	> 100 µM (inactive)	> 100 µM (inactive)	> 100 µM (inactive)	> 100 µM (inactive)	> 100 µM (inactive)	> 100 µM (inactive)
Fc1cc2nc3n(c2cc1F)C(c1c(F)cccc1F)SC3 (stereo not given)	37.1 µM (inactive)	61 µM (inactive)	21.8 µM (inactive)	47.9 µM (inactive)	38.8 µM (inactive)	84.5 µM (inactive)	35.6 µM (inactive)	27.1 µM (inactive)	50.8 µM (inactive)	36.8 µM (inactive)	35.4 µM (inactive)	42.1 µM (inactive)	53.3 µM (inactive)	26.9 µM (inactive)	42.7 µM (inactive)	> 100 µM (inactive)	30.1 µM (inactive)	37 µM (inactive)	45.4 µM (inactive)	57.3 µM (inactive)

From ChEMBL document CHEMBL1201862, “PubChem BioAssay data set” (2004)
